Results: patent publication US7622469B2, “2,4-diamino-1,3,5-triazine derivatives” (Hamari Chemicals, Ltd., priority 2002, dated 2009)
In brackets after ≈: the same amount, converted by molar mass.

Experiments:
Experiment in all cases: Antibacterial activity test (MIC)
Conditions in all cases: Mueller-Hinton Broth, 37° C., 20 to 24 hours
[1] = system: MRSA 97-115; format: cell-based, methicillin-resistant Staphylococcus aureus
Protocol: (§1) Regarding compounds obtained in respective Working Examples, in order to investigate antibacterial activity, minimal inhibitory concentration (MIC) was determined according to a standard method of Japanese Society of Chemotherapy.
(§2) As a test bacterium, nine kinds of S. aureus 209PJC, MRSA 97-115, MRSA KM 97-53, MRSA KM97-108, VRE 49, E. coli NIHJ JC-2, P. aeruginosa PAO-1, P. aeruginosa No. 12, P. aeruginosa KM97-5 were used and, as a medium, Mueller-Hinton Broth (DIFCO) was used. One platinum loop of a test bacterium was inoculated into 20 ml of a medium, and static culture was carried out at 37° C. for 16 to 20 hours, and then each bacterium species was diluted with a sterilized physiological saline to 10^5/ml, which was used as a test bacterium solution.
(§3) Then, each compound was dissolved in methanol, subjected to ½ stepwise dilution with a medium to prepare a medium for measuring sensitivity, and each 2 ml was dispensed into a test tube. A compound concentration in a medium was adjusted to 100 μg/ml and its 2^n-fold (n=−10 to 1).
(§4) Numerical values in Tables represent MIC expressed in μg/ml unit.

[2] = system: E. coli NIHJ JC-2; format: cell-based
Protocol: as §1, §2, §3, §4

[3] = system: S. aureus 209PJC; format: cell-based
Protocol: as §1, §2, §3, §4

[4] = system: P. aeruginosa PAO-1; format: cell-based
Protocol: as §1, §2, §3, §4

Row | minimal inhibitory concentration (MIC) [1] | minimal inhibitory concentration (MIC) [2] | minimal inhibitory concentration (MIC) [3] | minimal inhibitory concentration (MIC) [4] | Structure (SMILES)
1 | 1.6 µg/mL | 50 µg/mL | 0.8 µg/mL | 50 µg/mL | CCCCCCCCNC1=NC(C)(C)N(Cc2ccc(Cl)c(Cl)c2)C(N)=N1.Cl [12(2)]
2 | 0.8 µg/mL | 12.5 µg/mL | 0.2 µg/mL | 50 µg/mL | CCCCCCCCCCNC1=NC(C)(C)N=C(NCc2ccc(O)cc2)N1.Cl [compound 7]
3 | 1.6 µg/mL | 50 µg/mL | 0.8 µg/mL | 100 µg/mL | CC(=O)O.CCCCCCCNC1=NC2(CCCC2)N=C(NCc2ccccc2)N1 [compound 54]
4 | 0.8 µg/mL | 12.5 µg/mL | 0.4 µg/mL | 12.5 µg/mL | CCCCCCCCCNC1=NC(C)(C)N=C(NCc2ccccc2)N1.O=C(O)O [compound 47]
5 | 0.8 µg/mL | 100 µg/mL | 0.8 µg/mL | 100 µg/mL | CC(=O)O.CCCCCCCNC1=NC(C)(C)N=C(NC(C)(C)CC(C)(C)C)N1 [compound 71]
6 | 1.6 µg/mL | 6.3 µg/mL | 0.8 µg/mL | 12.5 µg/mL | CCCCCCCCCCC1N=C(N)N=C(N)N1Cc1ccc(C(F)(F)F)cc1.Cl (racemic) [18(2)]
7 | 3.1 µg/mL | 25 µg/mL | 1.6 µg/mL | 50 µg/mL | CCCCCCCCCC1N=C(N)N=C(N)N1c1ccc(F)c(F)c1F.Cl (centres unmarked) [compound 30]
8 | 1.6 µg/mL | 50 µg/mL | 1.6 µg/mL | 50 µg/mL | CCCCCCCCC1N=C(N)N=C(N)N1c1cc(C(C)(C)C)ccc1OC.Cl (centres unmarked) [compound 24]
9 | 1.6 µg/mL | 25 µg/mL | 0.4 µg/mL | 50 µg/mL | CCCCCCCCCCCCC1N=C(N)NC(NCc2ccc(OC)cc2)=N1.Cl (racemic) [16(1)]
10 | 0.8 µg/mL (≈ 2.11 µM) | 25 µg/mL (≈ 65.9 µM) | 0.8 µg/mL (≈ 2.11 µM) | 25 µg/mL (≈ 65.9 µM) | CCCCCCCCNC1=NC(C)(C)N=C(Nc2cccc3ccccc23)N1 [compound 64]
11 | 1.6 µg/mL | >100 µg/mL | 0.8 µg/mL | >100 µg/mL | CCCCCCCCCC1N=C(N)NC(Nc2ccc(C(C)(C)C)cc2)=N1.Cl (centres unmarked) [compound 23]
12 | 6.3 µg/mL | >100 µg/mL | 3.1 µg/mL | >100 µg/mL | CCCCCCCCCCNC1=NC(C)(C)N=C(NCc2ccc(C(=O)O)cc2)N1.Cl [compound 60]
13 | 1.8 µg/mL | 57 µg/mL | 0.9 µg/mL | 114 µg/mL | CCCCCCCCCCCNC1=NC(C)(C)N=C(NCCc2ccc(OC)cc2)N1.Cl [compound 6]
14 | 1.6 µg/mL | 25 µg/mL | 0.4 µg/mL | 25 µg/mL | CCCCCCCCCCCCC1N=C(N)N=C(N)N1Cc1ccc(OC)cc1.Cl (racemic) [16(2)]
15 | 3.1 µg/mL | 50 µg/mL | 3.1 µg/mL | 100 µg/mL | CCCCCCCCCCNC1=NC(C)(C)N(c2ccc(OC)cc2)C(N)=N1.Cl [compound 14]
16 | 0.8 µg/mL | 6.3 µg/mL | 0.4 µg/mL | 25 µg/mL | CCCCCCCCCCC1N=C(N)NC(NCc2ccc(C(F)(F)F)cc2)=N1.Cl (racemic) [18(1)]
17 | 1.6 µg/mL (≈ 3.34 µM) | >100 µg/mL | 0.4 µg/mL (≈ 0.836 µM) | >100 µg/mL | CCCCCCCCCCCCNC1=NC(C)(C)N=C(NCc2ccc(S(N)(=O)=O)cc2)N1 [compound 80]
18 | 1.6 µg/mL | 100 µg/mL | 0.8 µg/mL | 100 µg/mL | CC(=O)O.CCCCCCCCNC1=NC(C)(C)N=C(NCCCCCCC)N1 [compound 67]
19 | 1.6 µg/mL | 25 µg/mL | 0.8 µg/mL | 25 µg/mL | CC(=O)O.CCCCCCCCNC1=NC(C)(C)N=C(NCCc2ccccc2)N1 [compound 57]
20 | 0.8 µg/mL | 1.6 µg/mL | 0.2 µg/mL | 12.5 µg/mL | CCCCCCCCCCCCC1N=C(N)NC(NCc2ccccc2)=N1.Cl (racemic) [compound 44]
21 | 3.1 µg/mL | 50 µg/mL | 3.1 µg/mL | 50 µg/mL | CCCCCCCC1N=C(N)N=C(N)N1c1ccc(C(C)(C)C)cc1.Cl (centres unmarked) [compound 20]
22 | 0.8 µg/mL | 12.5 µg/mL | 0.8 µg/mL | 12.5 µg/mL | CC(=O)O.CCCCCCCCCNC1=NC(C)(C)N=C(Nc2ccccc2)N1 [compound 62]

Row | Structure (SMILES) | minimal inhibitory concentration (MIC) [1] | minimal inhibitory concentration (MIC) [2] | minimal inhibitory concentration (MIC) [3] | minimal inhibitory concentration (MIC) [4]
23 | CCCCCCCCCCNC1=NC(C)(C)N=C(NCc2ccc(OC)cc2)N1.O=C(O)CC(=O)O [compound 39] | 0.8 µg/mL | 25 µg/mL | 0.4 µg/mL | 50 µg/mL
24 | CCCCCCCCCCNC1=NC(C)(C)N=C(NCc2ccc(OC)cc2)N1.O=C(O)C(=O)O [compound 40] | 0.8 µg/mL | 25 µg/mL | 0.4 µg/mL | 25 µg/mL
25 | CCCCCCCCCCNC1=NC(C)(C)N=C(NCc2ccccc2)N1.O=C(O)CC(=O)O [41(2)] | 0.8 µg/mL | 6.3 µg/mL | 0.4 µg/mL | 12.5 µg/mL
26 | CCCCCCCCCCNC1=NC(C)(C)N=C(NCc2ccccc2)N1.O=C(O)C(=O)O [compound 42] | 1.6 µg/mL | 12.5 µg/mL | 0.8 µg/mL | 12.5 µg/mL
